# Reference: US20080051364A1, “Therapeutic Treatment of Accelerated Bone Resorption” (priority 2004, published 2008)
# Columns and labels:
# [1] = Plasma half life in human studies; format: in vivo; conditions: data not shown
# Experimental: (§1) Based on the above conversion methods, the preferred dosage range for two specific A3AR agonist, e.g. IB-MECA and Cl-IB-MECA, would be less than 4 mg, typically within the range of about 0.01 to about 2 mg (about 0.14-28 micrograms/Kg, respectively) and desirably within the range of about 0.1 to 1.5 mg (about 1.4-21 micrograms/Kg, respectively). This dose may be administered once, twice or, at times, several times a day.
# AIA rats [2] = assay: Clinical disease score and paw thickness in the Adjuvant Induced Arthritis (AIA) rat model; format: in vivo
# Experimental: (§2) Female Lewis rats, aged 8-10 weeks, obtained from Harlan Laboratories (Jerusalem, Israel), were injected subcutaneously (SC) at the tail base with 100 μl of suspension composed of incomplete Freund's adjuvant with 10 mg/ml heat killed Mycobacterium tuberculosis. Each group contained 10 animals and each experiment was conducted at least three times.
# (§3) Drugs were orally administered by gavage, twice daily. The […] received vehicle only (DMSO in a dilution corresponding to that of the drug) while the treatment groups received 10 μg/kg of IB-MECA. Treatment was initiated on day 14 after vaccination.
# The animals were inspected every second day for clinical arthritis. The scoring system ranged from 0-4 of each limb: 0—no arthritis; 1—redness or swelling of one toe/finger joint; 2—redness and swelling of more than one toe/finger joints, 3—the ankle and tarsal-metatarsal joints involvement. 4—entire paw redness or swelling. The inflammatory intensity was also determined in accordance with the increase in the rat hind paw's diameter, measured by caliper (Mitotoyo, Tokyo, Japan).
# [3] = system: Adjuvant Induced Arthritis (AIA), collagen induced arthritis (CIA) and thropomyosine induced arthritis; conditions: different experimental animal models; Baharav et al. 2004; cited from earlier work
# AIA rats [4] = assay: Histological score of joints of AIA rats; format: in vivo, rat
# Experimental: as §2, §3
# The foot, knee and hip region of both vehicle and CF101 treated animals were collected and fixed in 10% buffered formalin and decalcified in hydrochloric acid (Calci-Clear Rapid) (Pational Diagnostics, Gr, USA) for 24 h. The specimens were then processed for paraffine embedding, histologic 4-μm sections were cut and stained with hematoxylin and eosin. The sections were assessed by a pathologist blinded to the treatment protocols, and each joint was scored separately. The histology score was assessed as follows: A score of 0 to 4 for the extent of inflammatory cells' infiltration to was used according to the followed: 0—Normal; 1—minimal inflammatory infiltration; 2—mild infiltration; 3—moderate infiltration; 4—marked infiltration. The pannus formation joint tissues, synovial lining cell hyperplasia. The score was graded […]: 0—normal; 1—minimal loss of cortical bone at a few sites; 2—mild loss of cortical trabecular bone; 3—moderate loss of bone at many sites; 4—marked loss of bone at many sites; 5—marked loss of bone at many sites with fragmenting and full thickness penetration of inflammatory process or pannus into the cortical bone. The mean of all the histological parameter scores were designated “Histology Score”.
# At day 23 after the disease induction, the animals were scarified, and joints from two hind paws of each animal were harvested and examined histologically. The histological analysis was carried out on the basis of infiltration of inflammatory cells, synovial hyperplasia, cartilage and bone destruction. Most of the histophathological changes were found in the interophalangeal region of the foot. […] Overall, the severity of joint histopathology was correlated with the clinical severity index.
# [5] = system: key signaling protein expression down-stream to A3AR activation in paw extracts; assay: Western blot analysis of key signaling proteins in paw extracts from AIA rats; format: in vivo, rat
# Experimental: The hind paws were dissected above the ankle joint. The bony tissue was broken into pieces broken, snap frozen in liquid nitrogen and stored at −80° C. until use. The paw tissues were added to (4 ml/g tissue) RIPA extraction buffer containing 150 mM NaCl, 50 mM Tris, 1% NP40, 0.5% Deoxycholate and 0.1% SDS. Tissues were homogenized on ice with a polytron, centrifuged and the supernatans were subjected to Western Blot analysis
# Western blot analysis (WB) of paw extracts were carried out according to the following protocol. Samples were rinsed with ice-cold PBS and transferred to ice-cold lysis buffer (TNN buffer, 50 mM Tris buffer pH=7.5, 150 mM NaCl, NP 40). Cell debris was removed by centrifugation for 10 min, at 7500×g. Protein concentrations were determined using the Bio-Rad protein assay dye reagent. Equal amounts of the sample (50 μg) were separated by SDS-PAGE, using 12% polyacrylamide gels. The resolved proteins were then electroblotted onto nitrocellulose membranes (Schleicher & Schuell, Keene, N.H., USA). Membranes were blocked with 1% BSA and incubated with the desired primary antibody (dilution 1:1000) for 24 h at 4° C. Blots were then washed and incubated with a secondary antibody for 1 h at room temperature. Bands were recorded using BCIP/NBT color development kit (Promega, Madison, Wis., USA). Data presented in the different figures are representative of at least four different experiments.
# The hind paws of animals from the control and IB-MECA treated groups were dissected and after protein extraction the samples were subjected for WB analysis. […] The activation of the A3AR led to a 40% decrease in the RANKL protein expression level in paw extracts derived from IB-MECA treated AIA rats. […] This Chain of events led a 50% reduction in the expression level of TNF-α upon IB-MECA treatment.
# Plasma half life in mice = format: in vivo
# Experimental: as §1
compound,measurement,setting,value
"CNC(=O)[C@H]1O[C@@H](n2cnc3c(NCc4cccc(I)c4)ncnc32)[C@H](O)[C@@H]1O [IB-MECA, N^6-(3-iodobenzyl)-adenosine-5′-N-methyluronamide]",half life in plasma,[1],8 to 10 h
same,paw edema,"AIA rats [2]; AIA rats, 10 μg/kg orally twice daily from day 14",significantly decreased
same,inhibition in the paw thickness,"AIA rats [2]; AIA rats, 10 μg/kg orally twice daily from day 14 (FIG. 1B)",35%±1.2
same,maximal clinical arthritic score,"AIA rats [2]; AIA rats, 10 μg/kg orally twice daily from day 14, score 0-4 of each limb, control 8.7±0.76 (FIG. 1A)",4.8±0.95
same,paw appearance (redness and swelling),AIA rats [2]; representative paw vs control group (FIG. 1C),appears completely normal
same,clinical and pathological manifestations of arthritis,[3],efficacious in preventing the clinical and pathological manifestations of arthritis
same,bone loss,"AIA rats [4]; AIA rat model, summary statement",prevents bone loss
same,fibrosis and hyperplasia of the synovia,AIA rats [4]; day 23 (FIGS. 3A-3B),almost no the fibrosis and mild hyperplasia of the synovia
same,pannus tissue development,AIA rats [4]; day 23 (FIGS. 4A-4B),mild evidence for a development of pannus tissue
same,cartilage texture / destruction,AIA rats [4]; day 23 (FIGS. 5A-5B),appeared to be normal
same,presence of osteoblasts,AIA rats [4]; day 23 (FIGS. 8A-8B),low presence of osteoblasts
same,new bone formation,AIA rats [4]; day 23 (FIGS. 9A-9B),slight new bone formation
same,reduction in the appearance of osteoclasts,"AIA rats [4]; day 23, in comparison to the control group (FIGS. 6A-6B)",73%
same,"inflammatory changes in the joints, mean total score","AIA rats [4]; day 23, score 0-4, control 3.2±0.14 (FIGS. 2A-2B)",0.4±0.034
same,histopathological changes in the knee region,"AIA rats [4]; day 23 after disease induction, vs vehicle group",remained intact
same,A3AR expression,[5]; WB (FIG. 10A),Modulation in the A3AR itself was noted
same,decrease in the RANKL protein expression level,[5]; WB (FIG. 10B),40%
same,level of IKK,[5]; WB (FIG. 10C),down-regulation
same,level of NF-κB,[5]; WB (FIG. 10C),reduced level
same,reduction in the expression level of TNF-α,[5]; WB (FIG. 10C),50%
same,PI3K protein expression level,"[5]; WB, vs control (FIG. 10C)",reduction in the protein expression level
same,PKB/AKT protein expression level,"[5]; WB, vs control (FIG. 10C)",reduction in the protein expression level
same,half life,Plasma half life in mice,1.5 h
